Assay results as given in patent US20060135618A1, “Medicine comprising a thiourea for use as depigmenting agent or anti-mutagenic and anti-carcinogenic agent” (priority 2002, published 2006).

Columns and labels:
[1] = test system: melanin-producing human melanocyte-keratinocyte co-cultures; test: Depigmenting effect: melanin extraction from pigmented epidermis co-cultures; type: cell-based; settings: for Inhibition % of the melanin in the co-cultures: 2.8 mM in culture medium for 21 days; for inhibition at 2800 µM: read-out: Inhibition % of the melanin in the co-cultures
Description: The culture media are also supplied by this manufacturer.
Extraction is carried out on a pool of two culture wells, which are homogenized in 0.45 ml of sodium dodecyl sulphate (SDS) at 1% containing 0.05 mM of EDTA and 10 mM of Tris HCl (amino-2-(hydroxymethyl)-2-propanediol-1,3), pH 6.8. Add 20 μl of proteinase K at 5 mg/ml to each homogenate. Digest over night at 45° C. Then add a further 20 μl of proteinase K and continue incubation for 4 hours. Then add 50 μl of 0.5 M solution of sodium carbonate and 10 μl of a 30% solution of hydrogen peroxide. Maintain the specimens at 80° C. for 30 min and then cool them. Extract the specimens with 100 μl of a chloroform-methanol mixture (2:1, v/v). After centrifugation at 10,000 g for 10 min, measure the optical density of the supernatant at 405 nm. The products are compared in Table 1 below (the results are expressed as percentage inhibition of the melanin in the co-cultures): […]

[2] = test system: Salmonella typhimurium TA 104 recN2-4; test: Vitotox test, antimutagenic effect against MMS (methylmethanesulphonate); type: cell-based
Description: After incubation of the bacteria with a genotoxic product, the recN promoter is derepressed and the lux operon is expressed: emission of light, the said emission being proportional to the genotoxicity of the product. Some products act directly on the production of light or increase the metabolism of the bacteria, creating false positives. […] The same strain is used as cytotoxicity control (false negatives).
• In order to test the antimutagenic effect against genotoxic molecules, a genotoxic molecule, methylmethanesulphonate (MMS), is used, which is compared against the genotoxicity of a mixture of reference mutagenic molecules, 4-nitroquinoline oxide and benzo(a)pyrene. MMS is placed alone or mixed with bis MsoBT at increasing concentrations and the emissions of light are compared. […] The test product is used with or without metabolic activation (fraction S9: microsomal homogenate containing cytochrome P450: […] final). • The kinetics of emission of light, as a function of the genotoxicity and of the cytotoxicity of the product, is measured for 3 hours (measurements every 5 minutes) with a Fluoroskan Ascent FL (bermnoLabsystems). • The products are supplied by the companies Sigma-Aldrich. […]

[3] = test system: Salmonella typhimurium TA 104 recN2-4; test: Vitotox test, antimutagenic effect against UVB; type: cell-based; settings: cultures irradiated for 20 s, 254 nm, without MMS

SMILES: O=c1cc(CO)occ1O [Kojic acid, reference compound]
- inhibition at 35000 µM ([1]; Homo sapiens, 504 h, 35 mM in culture medium for 21 days): 32%

SMILES: C[S+]([O-])CCCCNC(=S)NCCCC[S+](C)[O-] (stereo not shown) [bis MSiBT, 1,3-bis-(5-methanesulphinylbutyl)-thiourea]
- Inhibition % of the melanin in the co-cultures [1]: 7.5%

SMILES: C[S+]([O-])CCCCNC(=S)NCCCCS(C)(=O)=O (stereo not shown) [MSBMSBT, 1-(5-methanesulphinylbutyl)-3-(5-methanesulphonylbutyl)-thiourea]
- inhibition at 2800 µM ([1]; Homo sapiens, 504 h): 18%

SMILES: CNC(=S)NC [Dimethylthiourea, dimethylthiourea, reference compound]
- Inhibition % of the melanin in the co-cultures [1]: 36%

SMILES: CS(=O)(=O)CCCCNC(=S)NCCCCS(C)(=O)=O [bis MSoBT, 1,3-bis-(5-methanesulphonylbutyl) thiourea]
- inhibitory concentration 50 of the mutagenic effect of MMS ([2]; with S9): 20 ppm
- inhibitory concentration 50 of the mutagenic effect of MMS ([2]; without S9): 17 ppm
- inhibition at 2800 µM ([1]; Homo sapiens, 504 h): 29.6%
- necessary concentration for approx. 30% melanin inhibition, times lower than for kojic acid ([1]; relative to kojic acid): 25 times
- inhibitory concentration 50 of the mutagenic effect induced by UVB [3]: 25 ppm
- melting point: 142 °C
